Assays:
Raw 264.7 cells = assay: Nitric oxide (NO) production inhibitory activity in LPS-stimulated Raw 264.7 cells (Griess reagent); type: cell-based; set-up: NO inhibition rate (%): concentration or dose not given beside the values; conditions: for NO: Raw 264.7 cells, LPS 100 ng/ml, sample concentration not given; for NO inhibition rate (%): vs LPS-only group
Procedure: [Measurement of Anti-Inflammatory Effect in Raw 264.7 Cells] Experimental Example 1. Confirmation of Nitric Oxide Production Inhibitory Activity Nitric oxide (NO) measurement was measuring the amount of nitric oxide (NO) in the supernatant of cells as nitrite and nitrate. The safe form after oxidation from nitrite to nitrate was measured using a griess reagent (Sigma, USA). In a […], 3×10^5 cells were cultured for 24 hours. […] Then, all wells except the normal group were stimulated by adding 100 ng/ml Lipopolysaccharide (LPS). After reacting with the griess reagent for 5 minutes, the absorbance was measured at 540 nm. The calibration curve was prepared using sodium nitrite solution, and the concentration of nitrite was calculated through absorbance. The NO inhibition rate was evaluated by a method of comparing with the group treated only with LPS according to Equation 1 below. The result was shown in the following Tables 7, 8, 9, 10, 11 and 12 and FIGS. 2, 3, 4 and 5. NO inhibition rate (%)=100−[(NO production amount of sample addition group*×100)/NO production amount of sample non-addition group*] [Equation 1] *Lipopolysaccharide (LPS) treatment group

[1] = test system: indomethacin-induced gastric ulcer; assay: Gastric ulcer index / inhibition rate in indomethacin-induced animal model; type: in vivo, rats; conditions: for Inhibition rate (%): gastric ulcer, rats, stomach excised 5 h after; for gastric ulcer inhibition rate compared to Stillen and Rebamipide (in words) / level of gastric ulcer inhibition rate despite the very small amount (in words): indomethacin-induced rats, summary of Table 13 and FIG. 7
From the text: [Measurement of gastric ulcer inhibitory effect in animals]
Experimental Example 2. Confirmation of Gastric Ulcer Inhibition Rate
Evaluation of Gastric Ulcer Index in Indomethacin-Induced Animal Model
For test animals, 7-week-old male rats without specific pathogens (SPF) were randomly distributed to each group by a randomized method so that the average body weight was distributed as evenly as possible after the adaptation period (7 days). The administration route was single administration of artemisia extract, and rebamipide and ethyl acetate pretreated water extract of Cinnamomum cassia, fraction (N2-1), 3,4-dihydroxybenzaldehyde, ferulic acid, 4-hydroxycinnamaldehyde, as oral administration, respectively, and the dose was calculated and administered as 10 mL/Kg based on the body weight measured on the day of administration. All animals were fasted 48 hours before administration of the test substance and control drug, and then each test substance and control drug were orally administered, and at 30 minutes after administration, indomethacin prepared in advance was orally administered at a dose of 80 mg/kg. After anesthesia with diethyl ether at 5 hours after administration of indomethacin, the stomach was excised and the gastric mucosa was photographed with a digital camera. The area of the damaged part was analyzed using ImageJ software (NIH, Bethesda, MD). The gastric ulcer index was measured according to the following equation.
Gastric ulcer index (%)=(damaged area/total area)×100 [Equation 2]

[2] = Prep-HPLC purified products from N2-1
[3] = single oral dose 1.5 mg/kg 30 min before indomethacin 80 mg/kg p.o.
[4] = Prep-HPLC purified products from R2-2

Structure (SMILES) | NO (Raw 264.7 cells; [2]) | NO inhibition rate (%) (Raw 264.7 cells; [2]) | gastric ulcer inhibition rate compared to Stillen and Rebamipide (in words) [1] | level of gastric ulcer inhibition rate despite the very small amount (in words) [1] | NO (Raw 264.7 cells; [4]) | NO inhibition rate (%) (Raw 264.7 cells; [4]) | further results
COc1cc(/C=C/C(=O)O)ccc1O [Compound A, ferulic acid] | 49.57 µM | 0% | excellent gastric ulcer inhibition rate | very high level of gastric ulcer inhibition rate | – | – | Inhibition rate (%) [1, 3]: 61.8%
O=C/C=C/c1ccc(O)cc1 [Compound B, 4-hydroxycinnamaldehyde] | 35.18 µM | 29% | excellent gastric ulcer inhibition rate | very high level of gastric ulcer inhibition rate | – | – | Inhibition rate (%) ([1]; single oral dose 2.0 mg/kg 30 min before indomethacin 80 mg/kg p.o.): 46.1%
O=C(O)CCc1ccccc1O [Compound C, 3-(2-hydroxyphenyl)propanoic acid] | 48.54 µM | 0% | – | – | – | – | –
O=Cc1ccc(O)c(O)c1 [Compound D, 3,4-dihydroxybenzaldehyde] | – | – | excellent gastric ulcer inhibition rate | very high level of gastric ulcer inhibition rate | 44.41 µM | 10% | Inhibition rate (%) [1, 3]: 61.3%
COc1cc(C(=O)O)cc(OC)c1O [Compound E, syringic acid] | – | – | – | – | 47.83 µM | 0% | –
COc1cc(C(=O)O)ccc1O [Compound F, vanillic acid] | – | – | – | – | 49.88 µM | 0% | –
O=C(NC(Cc1cc(=O)[nH]c2ccccc12)C(=O)O)c1ccc(Cl)cc1 (stereo not shown) [Rebamipide, reference compound] | – | – | – | – | – | – | Inhibition rate (%) ([1]; single oral dose 30 mg/kg 30 min before indomethacin 80 mg/kg p.o.): 21.5%

From patent publication US20240115644A1, “COMPOSITION FOR PREVENTING, IMPROVING OR TREATING GASTRITIS OR PEPTIC ULCER COMPRISING EXTRACT OF CINNAMOMUM CASSIA, FRACTION OF SAID EXTRACT, ISOLATE OF SAID FRACTION OR COMPOUNDS ISOLATED THEREFROM” (CHONG KUN DANG PHARMACEUTICAL CORP., priority 2020, published 2024)
